# In US20050221328A1, “Inhibitors of inflammatory gene activity and cholesterol biosynthesis” (Wyeth, priority 2002, published 2005):
# Entries after “also recorded” stand apart in the source; their conditions may differ.
# Tests used:
# SHP [1] = experiment: Regulation of SHP expression in mouse liver, six weeks treatment, real time PCR; assay type: in vivo; conditions: for liver SHP mRNA levels, WT animals: ovariectomized wildtype mice, sc six weeks, 10 ug/kg/day E2, 5 mg/kg/day tamoxifen, 5 mg/kg/day PPT
# Experimental: Several experiments were conducted to investigate the regulation of SHP expression, as follows. Referring to FIG. 9, ERα regulation of SHP expression in mouse liver was studied. […] Liver expression of SHP was monitored by real time PCR, with normalization for GAPDH expression. […] ICI182780 inhibited this induction.
# SHP [2] = experiment: Regulation of SHP by estrogen in the rat liver, real time PCR; assay type: in vivo; conditions: ovariectomized Sprague-Dawley rats, 10 ug/kg/day E2 or 5 mg/kg/day PPT, six weeks
# Source text: Liver expression of SHP was monitored by real time PCR, with normalization for GAPDH expression.
# [3] = test system: Fnk, JAB, LIX, bcl-3 and SHP; experiment: Liver expression of Fnk, JAB, LIX, bcl-3 and SHP by realtime PCR after estrogen receptor ligand pretreatment and IL-1β; conditions: for effect on regulation of liver Fnk, JAB, LIX, bcl-3 and SHP expression vs IL-1β alone: 1 or 10 mg/kg/day E2, 30 mg/kg/day genistein, 10 mg/kg/day ICI182780, plus IL-1β
# Experimental: Referring to FIG. 3a, to distinguish these two mechanisms, the IL-1β fold induction of Fnk, JAB, LIX, and bcl-3 and the IL-1β fold repression of SHP was quantified in animals pretreated with vehicle (black bars) or 100 ug/kg/day EE (grey bars). Liver RNA levels of each gene (mean +/−SEM) were determined by realtime PCR of RNA from each individual animal.
# Referring to FIGS. 4a, 4b, 4c, 4d and 4e, experiments were conducted to determine whether EE blocks IL-1β induction of gene expression by an estrogen receptor (ER) dependent mechanism. Estrogens can regulate gene expression by many mechanisms including ER independent pathways such as antioxidant mechanisms. […] Liver expression levels of Fnk, JAB, LIX, bcl-3 and SHP (mean +/−SEM) were determined by realtime PCR.
# Referring to FIGS. 5a, 5b, 5c, 5d, and 5e, experiments were conducted to determine whether ERα is required for EE regulation of gene expression in the liver. To determine whether ERα or ERβ mediated the EE effects on IL-1β gene expression in the liver, C57BL/6 wild type mice, C57BL/6 ERαKO mice, or 129 ERβKO mice were pretreated with vehicle (black bars) or […] EE (gray bars) for 5 days followed by a 1 hour treatment with IL-1β. Liver expression levels of Fnk, JAB, LIX, bcl-3, and SHP (mean +/−SEM) were quantified by realtime PCR, with expression in animals receiving vehicle+PBS defined as 1.0.
# [4] = test system: prostaglandin D synthase, IPS; experiment: Liver expression of prostaglandin D synthase and IPS; assay type: in vivo; conditions: mouse liver; 30 mg/kg/day genistein, 5 mg/kg/day raloxifene
# Source text: Referring to FIGS. 6a and 6b, experiments were constructed and performed to establish that EE induction of gene expression is not required for ERα inhibition of IL-1β gene inductions. […] The expression level in the vehicle+PBS treated mice was defined as 1.0. […] However, there was no correlation between the ability of these compounds to inhibit IL-1β gene induction (EE>genistein>raloxifene) and the ability of these compounds to stimulate prostaglandin D synthase expression (EE>>raloxifene>genistein).
# human SHP promoter = experiment: hSHP promoter luciferase reporter in HepG2 or 293 cells cotransfected with human ERα; assay type: cell-based; conditions: for SHP promoter activity, compound alone: 10 nM E2 or 1 uM compound, 24 hours
# Experimental: Referring to FIGS. 11a and 11b, ERα regulation of hSHP promoter activity in human cells was examined. Human HepG2 or 293 cells were cotransfected with a control SV40 driven β-galactosidase plasmid, a luceriferase plasmid driven by 1.4 kb of the human SHP promoter, and an expression plasmid encoding either no protein or human ERα. […] Cell extracts were then analyzed for luciferase activity normalized for β-galactosidase activity.
# Referring to FIGS. 12a, 12b, and 12c, ERα regulation of hSHP promoter activity in 293 cells was examined. Referring to FIGS. 12a and 12b, 293 cells were cotransfected with a control SV4O driven […] plasmid, a luceriferase plasmid driven by either 1.4 kb of the human SHP promoter or a synthetic 2×ERE/TK promoter, and an expression plasmid for human ERα. […] Cell extracts were then analyzed for luciferase activity with normalization for β-galaetosidase activity.
# SHP [5] = experiment: IL-1β inhibition of SHP expression in HepG2 cells (realtime PCR); assay type: cell-based, human; conditions: 100 U/ml IL-1β, 3 and 6 hours, p<0.05 vs time 0
# Experimental: Referring to FIG. 2, IL-1β inhibition of SHP expression in HepG2 cells was examined as follows. IL-1β is typically not associated with repression of gene expression. To verify a direct IL-1β mediated repression of SHP expression, HepG2 cells were treated with 100 U/ml IL-1β. Total RNA prepared at various times afterward was analyzed for SHP expression by using realtime PCR. […] This was not due to a general decrease in cell viability as SHP mRNA levels returned to baseline levels by 9 hours following IL-1β treatment.
# mouse liver = conditions: GeneChip, 1 h after 20 ug/kg IL-1β ip, pretreated 5 days with vehicle or 100 ug/kg/day EE sc, vehicle+PBS=1.0;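 also: ovariectomized C57BL/6 mice, liver polyA RNA profiled, values are fold expression relative to vehicle plus PBS, averaged over two independent experiments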
# Experimental: Experiments were conducted to evaluate IL-1β regulation of gene expression in the mouse liver. Ovariectomized C57BL/6 mice were pretreated by subcutaneous administration of either corn oil/ethanol vehicle or 100 ug/kg/day ethynylestradiol (EE) for 5 days. On the fifth day, the mice received an intraperitoneal injection of either PBS or 20 ug/kg IL-1β in PBS. One hour later the livers were removed and polyA RNA was prepared. Global gene expression was determined by analysis using murine 11K GeneChips from Affymetrix. For each gene, the level of expression in animals receiving vehicle pretreatment plus PBS was defined as 1.0, with the expression levels in the mice receiving vehicle pretreatment±IL-1β or EE pretreatment±IL-1β defined relative to this. The results shown are the mean from two independent experiments.
# The fold regulation of each gene is plotted for animals receiving vehicle pretreatment x-axis) vs. animals receiving pretreatment with EE (y-axis). Genes with IL-1β induction unaffected by EE pretreatment would lie along the dotted diagonal.
# [6] = mice, 100 ug/kg/day EE, 5 mg/kg/day raloxifene
molecule,measurement,setting,value
CCCc1c(-c2ccc(O)cc2)nn(-c2ccc(O)cc2)c1-c1ccc(O)cc1 [PPT],"liver SHP mRNA levels, WT animals",SHP [1],induced
same,"liver SHP expression, rat",SHP [2],significantly induced
O=C(c1ccc(OCCN2CCCCC2)cc1)c1c(-c2ccc(O)cc2)sc2cc(O)ccc12 [raloxifene],SHP expression in liver,"[3]; mice, 5 mg/kg/day raloxifene (FIG. 4)",did not increase
same,"effect on regulation of liver Fnk, JAB, LIX, bcl-3 and SHP expression vs IL-1β alone",[3]; [6],magnitude was not as great
same,"inhibition of IL-1β induction of Fnk, JAB, LIX and bcl-3","[3]; mouse liver, 100 ug/kg/day EE, 30 mg/kg/day genistein, 5 mg/kg/day raloxifene",able to inhibit; also recorded: inhibited
same,induction of IPS,[4],very weak induction
same,"SHP promoter activity, compound alone",human SHP promoter; 293 cells with human ERα,inactive alone
same,effect on E2 activity at SHP promoter,"human SHP promoter; 293 cells with human ERα, 1 uM compound plus 10 nM E2",antagonized
"C[C@]12CC[C@@H]3c4ccc(O)cc4CC[C@H]3[C@@H]1CC[C@@H]2O [E2, 17β-estradiol]","effect on regulation of liver Fnk, JAB, LIX, bcl-3 and SHP expression vs IL-1β alone",[3]; [6],greatest effect
same,expression of SHP in ERαKO or ERαβKO mice,"SHP [1]; 10 ug/kg/day E2, six weeks",did not induce
same,expression of SHP in ERβKO mice,"SHP [1]; 10 ug/kg/day E2, six weeks",still induced
same,"liver SHP mRNA levels, WT animals",SHP [1],induced
same,"liver SHP expression, rat",SHP [2],significantly induced
same,"SHP promoter activity, compound alone",human SHP promoter; 293 cells with human ERα,stimulated
same,SHP promoter activity,"human SHP promoter; HepG2 or 293 cells, 10 nM E2 24 hours, only in cells expressing ERα",induced
"IL-1: cytokine IL-1β, injected intraperitoneally in PBS or added to HepG2 cells",IL-1 repression of SHP expression,"[3]; mouse liver, realtime PCR, vehicle treated or 100 ug/kg/day EE treated animals",86%
same,IL-1 induction of bcl-3,"[3]; mouse liver, realtime PCR, vehicle treated or 100 ug/kg/day EE treated mice, IL-1 vs PBS",6.2 fold
same,SHP expression,SHP [5],significantly reduced
same,IL-1 Induction A20 (Tnfaip3),mouse liver,14.0 fold
same,"IL-1 Induction B94, TNF-α induced protein 2 (Tnfaip2)",mouse liver,17.1 fold
same,IL-1 Induction C/EBPδ (Cebpd),mouse liver,7.0 fold
same,IL-1 Induction CD14 (Cd14),mouse liver,3.5 fold
same,IL-1 Induction CD83 (Cd83),mouse liver,6.2 fold
same,IL-1 Induction E-selectin (Sele),mouse liver,7.2 fold
same,IL-1 Induction Ets transcription factor ELF3 (Elf3),mouse liver,22.5 fold
same,IL-1 Induction G0/G1 switch gene 2 (G0s2),mouse liver,0.11 fold
same,IL-1 Induction GTP binding protein IRG-47 (lfi47),mouse liver,5.4 fold
same,IL-1 Induction Gadd45 (Gadd45a),mouse liver,10.9 fold
same,IL-1 Induction Glvr-1 (Slc20a1),mouse liver,3.9 fold
same,IL-1 Induction H-2Ld (H-2L),mouse liver,8.2 fold
same,IL-1 Induction ICAM-1 (lcam1),mouse liver,40.9 fold
same,IL-1 Induction IL-1m (Il1m),mouse liver,23.6 fold
same,IL-1 Induction IL-15 receptor (Il15ra),mouse liver,9.2 fold
same,IL-1 Induction IxBa (Nfkbia),mouse liver,8.7 fold
same,"IL-1 Induction JAB, suppressor of cytokine signaling 1 (Cish1)",mouse liver,7.3 fold
same,IL-1 Induction JE/MCP-1 (Scya2),mouse liver,82.3 fold
same,IL-1 Induction LIX (Scyb5),mouse liver,5.2 fold
same,IL-1 Induction LPS inducible C—C chemokine receptor related (AF030185),mouse liver,6.3 fold
same,IL-1 Induction M-CSF (Csf1),mouse liver,32.8 fold
same,IL-1 Induction MARCKS-like macrophage protein (Mlp),mouse liver,4.8 fold
same,IL-1 Induction MIG (Scyb9),mouse liver,15.0 fold
same,IL-1 Induction MIP2 (Scyb2),mouse liver,60.1 fold
same,IL-1 Induction MIP-1 gamma (Scya9),mouse liver,2.9 fold
same,IL-1 Induction MyD118 (GADD45b),mouse liver,24.3 fold
same,IL-1 Induction NF-E2 related factor 2 (NRF2) (Nfe212),mouse liver,5.2 fold
same,IL-1 Induction NF-kappa-B p105 (Nfkb1),mouse liver,13.8 fold
same,IL-1 Induction NFkB p100 (Nfkb2),mouse liver,4.0 fold
same,IL-1 Induction PAI-1 (Serpine1),mouse liver,37.6 fold
same,IL-1 Induction PDGF-induced KC (Gro1),mouse liver,7.3 fold
same,IL-1 Induction PIM-1 protein kinase (Pim1),mouse liver,2.4 fold
same,IL-1 Induction SHP (NrGb2),mouse liver,0.23 fold
same,IL-1 Induction T-cell death associated gene (Tdag),mouse liver,2.5 fold
same,IL-1 Induction T-cell specific GTPase (Tgtp),mouse liver,4.4 fold
same,IL-1 Induction TGFB inducible early growth response (Tieg),mouse liver,0.31 fold
same,IL-1 Induction Ubiquitin-conjugating E2 enzyme variant 2 (Ube2v2),mouse liver,5.0 fold
same,IL-1 Induction VCAM-1 (Vcam1),mouse liver,5.2 fold
same,"IL-1 Induction adrenergic receptor, beta 2 (Adrb2)",mouse liver,2.9 fold
same,IL-1 Induction adrenomedullin (Adm),mouse liver,11.3 fold
same,IL-1 Induction apoptosis inhibitor 1 (Birc2),mouse liver,12.2 fold
same,IL-1 Induction apoptosis inhibitor 2 (Birc3),mouse liver,9.6 fold
same,IL-1 Induction bcl-3 (Bcl3),mouse liver,11.6 fold
same,IL-1 Induction c-JUN (Jun),mouse liver,4.8 fold
same,IL-1 Induction calcium binding protein A6 (S100a6),mouse liver,2.4 fold
same,IL-1 Induction calgranulin A (S100A8),mouse liver,10.4 fold
same,IL-1 Induction calgranulin B (S100a9),mouse liver,12.5 fold
same,IL-1 Induction cytokine-inducible kinase Fnk (Cnk),mouse liver,2.9 fold
same,IL-1 Induction gly96 (ler3),mouse liver,42.1 fold
same,IL-1 Induction growth factor receptor bound protein 7 (Grb7),mouse liver,0.27 fold
same,IL-1 Induction guanylate nucleotide binding protein 2 (Gbp2),mouse liver,6.5 fold
same,IL-1 Induction helix-loop-helix factor HES-1 (Hes1),mouse liver,0.09 fold
same,IL-1 Induction heme oxygenase 1 (Hmox1),mouse liver,5.5 fold
same,IL-1 Induction hsp68 (Hsp70-3),mouse liver,6.3 fold
same,IL-1 Induction inducible 6-phosphofructo-2-kinase (AA163244),mouse liver,4.0 fold
same,IL-1 Induction inhibitor of DNA binding 3 (idb3),mouse liver,6.0 fold
same,IL-1 Induction insulin-like growth factor binding protein 1 (lgfbp1),mouse liver,4.0 fold
same,IL-1 Induction intercrine (Scya7),mouse liver,12.4 fold
same,IL-1 Induction interferon regulatory factor 1 (Irf1),mouse liver,10.5 fold
same,IL-1 Induction junB (Junb),mouse liver,2.9 fold
same,IL-1 Induction lipocalin 2 (Lcn2),mouse liver,5.5 fold
same,IL-1 Induction lkB-beta (Nfkbib),mouse liver,4.0 fold
same,IL-1 Induction m-myc (Myc),mouse liver,3.0 fold
same,IL-1 Induction macrophage interferon inducible protein 10 (Scyb10),mouse liver,50.1 fold
same,IL-1 Induction metalloproteinase-disintegrin (Adamts1),mouse liver,2.7 fold
same,IL-1 Induction molecule possessing ankyrin-repeats induced by LPS (aa614971),mouse liver,22.7 fold
same,IL-1 Induction myocyte-enriched calcineurin interactin protein (Dscrl),mouse liver,11.1 fold
same,IL-1 Induction noctumin (Ccr4),mouse liver,7.7 fold
same,IL-1 Induction p65 NF-kappa B (Rela),mouse liver,2.5 fold
same,IL-1 Induction phospholipid scramblase 1 (Plscr1),mouse liver,4.4 fold
same,IL-1 Induction protein tyrosine phosphatase 4a1 (Ptp4a1),mouse liver,2.0 fold
same,IL-1 Induction regulator for ribosome resistance homolog (Rrr),mouse liver,2.8 fold
same,IL-1 Induction relB (Relb),mouse liver,7.0 fold
same,IL-1 Induction rhoB (Arhb),mouse liver,30.0 fold
same,IL-1 Induction serum amyloid A 3 (Saa3),mouse liver,37.4 fold
same,IL-1 Induction serum amyloid A 4 (Saa4),mouse liver,2.5 fold
same,IL-1 Induction suppressor of cytokine signaling 2 (Cish2),mouse liver,2.7 fold
same,IL-1 Induction suppressor of cytokine signaling 3 (Cish3),mouse liver,13.5 fold
same,IL-1 Induction transglutaminase (Tgm2),mouse liver,2.2 fold
